The values that follow come from US8124793B2, “Derivatives of ethylene methanedisulfonate as cancer chemotherapeutic agents” (priority 2007, dated 2012).

Common to all, as to type: cell-based
One assay has as its system CCRF-CEM. The assay is described as follows: NCI screen, growth of human tumor cells: Leukemia CCRF-CEM. Particulars: CCRF-CEM (Leukemia), 10^−4 molar. As for the experimental part:
(§1) In the NCI screening process, each compound was tested and described by a minimum of 60 data points. The test data include, but are not limited to the type of cancer, the molar concentration used in the screen, and the percent growth of the cancer. In some cases, NMR and elemental analysis were used for structural assignment.

A further assay relates to K562. The assay is described as follows: NCI screen, growth of human tumor cells: Leukemia K562. To be noted: K562 (Leukemia), 10^−4 molar. As for the experimental part:
as §1

A further assay deals with MOLT-4. The assay is described as follows: NCI screen, growth of human tumor cells: Leukemia MOLT-4. Particulars: MOLT-4 (Leukemia), 10^−4 molar. How it is done:
as §1

For another assay, the system named is NCI-H460. The assay is described as follows: NCI screen, growth of human tumor cells: Non-Small Cell Lung NCI-H460. Particulars: NCI-H460 (Non-Small Cell Lung), 10^−4 molar. How it is done:
as §1

The next assay relates to SF-268. The assay is described as follows: NCI screen, growth of human tumor cells: CNS Cancer SF-268. Particulars: SF-268 (CNS Cancer), 10^−4 molar. How it is done:
as §1

The subject of the next assay is SNB-19. The assay is described as follows: NCI screen, growth of human tumor cells: CNS Cancer SNB-19. As for the experimental part:
as §1

The test system of the next assay is SF-539. Description: NCI screen, growth of human tumor cells: CNS Cancer SF-539. Particulars: SF-539 (CNS Cancer), 10^−4 molar. As for the experimental part: as §1
The next assay concerns SNB-75. Description: NCI screen, growth of human tumor cells: CNS Cancer SNB-75. To be noted: SNB-75 (CNS Cancer), 10^−4 molar. As for the experimental part:
as §1

The subject of another assay is U-251. Description: NCI screen, growth of human tumor cells: CNS Cancer U-251. Particulars: U-251 (CNS Cancer), 10^−4 molar. How it is done:
as §1

In another assay the test system is UACC-62. The assay is described as follows: NCI screen, growth of human tumor cells: Melanoma UACC-62. Particulars: UACC-62 (Melanoma), 10^−4 molar. How it is done: as §1
In the next assay the test system is ACHN. The assay is described as follows: NCI screen, growth of human tumor cells: Renal Cancer ACHN. Particulars: ACHN (Renal Cancer), 10^−4 molar. As for the experimental part:
as §1

The next assay deals with CAKI-1. The assay is described as follows: NCI screen, growth of human tumor cells: Renal Cancer CAKI-1. To be noted: CAKI-1 (Renal Cancer), 10^−4 molar. How it is done: as §1
In a further assay the test system is human cancer cells. The assay is described as follows: NCI screen summary over the cancers tested (negative growth of human cancer cells). Particulars: 10^−4 M conc.; cancers with negative growth / cancers tested. As for the experimental part: as §1
The derivatives in the tables are grouped using the same category as in the tables 1-6.

The next assay concerns RPMI-8226. Description: NCI screen, growth of human tumor cells: Leukemia RPMI-8226. To be noted: RPMI-8226 (Leukemia), 10^−4 molar. How it is done:
as §1

A further assay relates to NCI-H226. Description: NCI screen, growth of human tumor cells: Non-Small Cell Lung NCI-H226. To be noted: NCI-H226 (Non-Small Cell Lung), 10^−4 molar. As for the experimental part:
as §1

In the next assay the test system is HCT-116. The assay is described as follows: NCI screen, growth of human tumor cells: Colon Cancer HCT-116. Particulars: HCT-116 (Colon Cancer), 10^−4 molar. As for the experimental part:
as §1

The next assay deals with LOXIMVI. Description: NCI screen, growth of human tumor cells: Melanoma LOXIMVI. Particulars: LOXIMVI (Melanoma), 10^−4 molar. As for the experimental part:
as §1

The test system of another assay is PC-3. Description: NCI screen, growth of human tumor cells: Prostate Cancer PC-3. To be noted: PC-3 (Prostate Cancer), 10^−4 molar. How it is done:
as §1

The next assay concerns OVCAR-3. The assay is described as follows: NCI screen, growth of human tumor cells: Ovarian Cancer OVCAR-3. To be noted: OVCAR-3 (Ovarian Cancer), 10^−4 molar. As for the experimental part: as §1
The next assay deals with RXF-393. The assay is described as follows: NCI screen, growth of human tumor cells: Renal Cancer RXF-393. How it is done:
as §1

Another assay relates to SR. Description: NCI screen, growth of human tumor cells: Leukemia SR. Particulars: for % Growth: SR. As for the experimental part:
as §1

Another assay concerns HOP-18. The assay is described as follows: NCI screen, growth of human tumor cells: Non-Small Cell Lung HOP-18. As for the experimental part:
as §1

A further assay concerns HOP-92. Description: NCI screen, growth of human tumor cells: Non-Small Cell Lung HOP-92. As for the experimental part:
as §1

The next assay has as its system NCI-H522. The assay is described as follows: NCI screen, growth of human tumor cells: Non-Small Cell Lung NCI-H522. As for the experimental part:
as §1

A further assay deals with HCC-2998. The assay is described as follows: NCI screen, growth of human tumor cells: HCC-2998 (listed under Non-Small Cell Lung). Particulars: HCC-2998 (under Non-Small Cell Lung), 10^−4 molar. As for the experimental part:
as §1

For a further assay, the system named is 786-0. The assay is described as follows: NCI screen, growth of human tumor cells: Renal Cancer 786-0. Particulars: 786-0 (Renal Cancer), 10^−4 molar. As for the experimental part:
as §1

For a further assay, the system named is KD488. Description: NCI screen, growth of human tumor cells: Lymphoma KD488.
The test system of another assay is MALME-3M. Description: NCI screen, growth of human tumor cells: Melanoma MALME-3M. To be noted: MALME-3M, 10^−4 molar. As for the experimental part: as §1

The structures appear in SMILES notation.

On to `CC1S(=O)(=O)OCCOS1(=O)=O` [NSC 372239], for which the “percent of growth of human tumor cells” value in the assay with CCRF-CEM is −6%; in the assay on K562, 12%; with MOLT-4 it was 12%; with NCI-H460 it was 2%; in the assay with SF-268, 29%; in the assay with SNB-19 (SNB-19 (CNS Cancer), 10^−4 molar), 26%. The “percent of growth of human tumor cells” value with SF-539 was 28%; in the assay with SNB-75, 28%; with U-251 it was 16%; in the assay with UACC-62, −14%; with ACHN it was 20%; in the assay with CAKI-1 it was 20%. Further, the “Percentage of cancers showing negative growth cancers tested” value (shortened to “Percentage”) in the assay with human cancer cells is 2/12 = 17%.

Turning to `O=S1(=O)OCCOS(=O)(=O)C1(Cl)Cl` [NSC 648307], the “percent of growth of human tumor cells” value was determined as 29% with CCRF-CEM; 21% in the assay with RPMI-8226; 23% in the assay with NCI-H226; 7% in the assay with UACC-62; 23% in the assay with CAKI-1. For the same compound, the “Percentage” value in the assay on human cancer cells is listed as 10^−4 M conc. = 0/5 = 0%.

As for `O=S(=O)([O-])OCCCC1S(=O)(=O)OCCOS1(=O)=O.[Na+]` [NSC 674994, butane-1-[hydroxyhydrogensulfate]-4,4-[ethylenedisulfonate]], the “% Growth” value came to 36% in the assay with SNB-19 (SNB-19, 10^−4 molar); 45% with SNB-19 (SNB-19, 10^−5 molar); 47% in the assay on SNB-19 (SNB-19, 10^−6 molar); 73% with SNB-19 (SNB-19, 10^−7 molar); 67% in the assay with SNB-19 (SNB-19, 10^−8 molar). Besides, the “Percentage” value in the assay with human cancer cells is on record as 10^−4 M conc. = 0/1 = 0%.

Take `O=S1(=O)OCCOS(=O)(=O)[C-]1S(=O)(=O)c1cccc2ccccc12.[Na+]` [NSC 679044]: the “percent of growth of human tumor cells” value in the assay with K562 is 15%; with HCT-116, −52%; in the assay on LOXIMVI, 23%; in the assay with PC-3, 23%. Moreover, the “Percentage” value in the assay on human cancer cells is on record as 10^−4 M conc. = 1/4 = 25%.

Consider `C[Si](C)(OCCS(=O)(=O)O)OC(=C1S(=O)(=O)OCCOS1(=O)=O)c1cccc2ccccc12.[Na+]` [NSC 679049], for which the “percent of growth of human tumor cells” value amounted to 22% in the assay with OVCAR-3 and 23% in the assay with RXF-393 (RXF-393 (Renal Cancer), 10^−4 molar).

Consider `COC=C1S(=O)(=O)OCCOS1(=O)=O` [NSC 701691, ethylene 2-methoxy-1,1-ethylenedisulfonate], for which the “percent of growth of human tumor cells” value in the assay with CCRF-CEM is reported as 24%. For the same compound, the “% Growth” value in the assay on SR (10^−4 molar) was determined as 12%; in the assay on SR (10^−5 molar), 49%; with HOP-18 (HOP-18, 10^−4 molar), 44%; with HOP-18 (HOP-18, 10^−5 molar), 56%; in the assay on HOP-18 (HOP-18, 10^−6 molar), 92%; in the assay with HOP-18 (HOP-18, 10^−7 molar), 71%. Also, the “% Growth” value in the assay on HOP-18 (HOP-18, 10^−8 molar) came to 58%; in the assay on HOP-92 (HOP-92, 10^−4 molar) it was 44%; in the assay on HOP-92 (HOP-92, 10^−5 molar), 56%; in the assay on HOP-92 (HOP-92, 10^−6 molar), 92%; with HOP-92 (HOP-92, 10^−7 molar), 71%; in the assay with HOP-92 (HOP-92, 10^−8 molar), 58%. Also, the “% Growth” value with NCI-H522 (NCI-H522, 10^−4 molar) came to 66%; in the assay with NCI-H522 (NCI-H522, 10^−5 molar), 44%; with NCI-H522 (NCI-H522, 10^−6 molar) it was 67%; in the assay on NCI-H522 (NCI-H522, 10^−7 molar) it was 48%; in the assay with NCI-H522 (NCI-H522, 10^−8 molar), 73%; in the assay on RXF-393 (RXF-393, 10^−4 molar), 23%. The “% Growth” value in the assay with RXF-393 (RXF-393, 10^−5 molar) is recorded as 55%; in the assay on RXF-393 (RXF-393, 10^−6 molar), 60%; with RXF-393 (RXF-393, 10^−7 molar) it was 68%; with RXF-393 (RXF-393, 10^−8 molar) it was 63%. Moreover, the “Percentage” value in the assay on human cancer cells is 10^−4 M conc. = 0/6 = 0%.

On to `CC1(C)OCC(COC(=O)C(=O)OC(C(=O)OCC2COC(C)(C)O2)=C2S(=O)(=O)OCCOS2(=O)=O)O1` (centres unmarked) [NSC 737275], for which the “percent of growth of human tumor cells” value with SR (SR (Leukemia), 10^−4 molar) is on record as 7%; in the assay with HCC-2998, −12%; with SF-268 it was 24%; in the assay with SF-539 it was 15%; with 786-0 it was 17%. Besides, in the assay with human cancer cells, the “Percentage” value is given as 10^−4 M conc. = 1/5 = 20%.

Consider `O=C(c1cccc2ccccc12)C1(Br)S(=O)(=O)OCCOS1(=O)=O` [compound 679048], for which the “% Growth” value is 54% in the assay on KD488 (KD488, 10^−4 molar); 51% in the assay on KD488 (KD488, 10^−5 molar); 34% in the assay on KD488 (KD488, 10^−6 molar); 100% in the assay on KD488 (KD488, 10^−7 molar); 52% in the assay with KD488 (KD488, 10^−8 molar).

For the compound `COC(=O)c1cc(/C=C/C(=O)Cc2ccccc2)cn1S(=O)(=O)c1ccccc1` [compound 679534], the “% Growth” value in the assay on MALME-3M was −88%.
